Bases are written 5' to 3'; sugars and linkages follow in the same order, as letters with counts (s phosphorothioate, o phosphodiester; PS: all linkages phosphorothioate). The collection does not say whether C is 5-methylated. l = locked nucleic acid (LNA); d = 2'-deoxy (DNA)

In the data set the target is Tau. The data set is described as follows: rat primary cortical neurons, FLIPR, 25 uM ASO.
With “CATTTACCAATTATCTTTAA (sugars l4 d12 l4, PS)”, the calcium oscillation score is 72 % of control. Consider “AACATCTAAACACCTCAATC (sugars l4 d12 l4, PS)”, for which the calcium oscillation score was 77.6 % of control. Take “ATTTCCAAATTCACTTTTAC (sugars lldlldddddddddldldll, PS)”: the calcium oscillation score was 83 % of control. In the case of TCATCTTTTCTAGAAC (sugars l4 d8 l4, PS), the calcium oscillation score was 77.3 % of control.

Regarding TGGACGTTGCTAAGAT (sugars l3 d10 l3, PS), the calcium oscillation score was 0 % of control. On to “TTATTTCCAAATTCACTTTT (sugars lldlddldddddddddllll, PS)”, for which the calcium oscillation score is 131 % of control.

In the case of ACCATGATCTTAGGCT (sugars l3 d10 l3, PS), the calcium oscillation score was 87.8 % of control. For TCAACTGGTTTGTAGA (sugars l3 d10 l3, PS), the calcium oscillation score was 110 % of control.

As to “AAAAGTCCATTCCCTCC (sugars l2 d12 l3, PS)”, the calcium oscillation score was 64 % of control.

In the case of TTATTAATTATCTGCA (sugars l3 d10 l3, PS), the calcium oscillation score is 58.7 % of control. The same measure for “TCCCCACCCAAACTCCA (sugars l2 d13 l2, PS)”: 80.8 % of control; for CTACCATGTCGATGCT (sugars l3 d10 l3, PS): 99.7 % of control; for “GTAACCAACTTTCATCT (sugars l2 d12 l3, PS)”: 78.7 % of control. As to “CTTGAAGTCAAGCTTCTCAG (sugars l3 d14 l3, PS)”, the calcium oscillation score was 33.2 % of control. Take GCAACAATCCAACCAC (sugars l2 d10 l4, PS): the calcium oscillation score was 76.3 % of control. The same measure for GTTAGCCCTAAAGT (sugars l3 d8 l3, PS): 61 % of control. Take TTAATTTCACCCTCAG (sugars l3 d10 l3, PS): the calcium oscillation score is 41.7 % of control. As for CTTAATTTCACCCTCA (sugars l3 d10 l3, PS), the calcium oscillation score was 40.3 % of control. On to TGGTCAAGGCTTTGGG (sugars l3 d10 l3, PS), for which the calcium oscillation score was 0 % of control. “ATTTCCAAATTCACTTTTAC (sugars l4 d11 l5, PS)”: the calcium oscillation score was 136 % of control. Turning to “TTATTTCCAAATTCACTTTT (sugars llldlddddddddddldlll, PS)”, the calcium oscillation score was 116 % of control. The same measure for TCTTCATTCTTGCCCA (sugars l2 d12 l2, PS): 38.1 % of control; for ACTCAGTTCTCTATAAT (sugars l4 d9 l4, PS): 64.1 % of control. On to GATCTTAGGCTGGCC (sugars l3 d9 l3, PS), for which the calcium oscillation score was 8.13 % of control.

As to ATTTTACTACTCTCTTT (sugars l4 d9 l4, PS), the calcium oscillation score was 82 % of control. With GAAGGTGGCTCTGGGC (sugars l3 d10 l3, PS), the calcium oscillation score is 0 % of control. Turning to “TACACCATCCAAGTCAA (sugars l3 d10 l4, PS)”, the calcium oscillation score is 97 % of control. For “CGAAACCAAGGTCCCACCAG (sugars l3 d14 l3, PS)”, the calcium oscillation score was 40.4 % of control.

On to “CCATCTTAATTCATTTAATT (sugars l4 d13 l3, PS)”, for which the calcium oscillation score was 69.1 % of control.

For the sequence “CACCACTTTAATCTGCCT (sugars l2 d14 l2, PS)”, the calcium oscillation score is 41.1 % of control. With “CCCCACTTTTAATTAAATTT (sugars l3 d15 l2, PS)”, the calcium oscillation score is 97 % of control. With “TCATCTTTTCTAGAACC (sugars l4 d10 l3, PS)”, the calcium oscillation score is 70.9 % of control.

In the case of “CGAACTGCGAGGAGCAGCTG (sugars l3 d14 l3, PS)”, the calcium oscillation score was 0 % of control. With “TCCCACCATCCACGCTC (sugars l2 d13 l2, PS)”, the calcium oscillation score is 64.7 % of control. Consider “CCTTGAAGTCAAGCTTCTCA (sugars l3 d14 l3, PS)”, for which the calcium oscillation score was 66.4 % of control. With “CATCAGCCTTCATCACA (sugars l4 d11 l2, PS)”, the calcium oscillation score is 91.8 % of control. The same measure for “CTTTTGAACCCATTCCA (sugars l3 d12 l2, PS)”: 82.2 % of control.

For “AAAATATCCTTACCATCC (sugars l4 d10 l4, PS)”, the calcium oscillation score was 70.2 % of control. In the case of “CTCATCAACACCTTTTAATT (sugars l4 d14 l2, PS)”, the calcium oscillation score is 78.7 % of control. To “CTTTATTTCCAAATTCAC (sugars l3 d11 l4, PS)” belongs 112 % of control; to “GTTATACAGTTGGCCCTACC (sugars l3 d14 l3, PS)”, 14.3 % of control. For “GTCCACAAACCAACTCA (sugars l3 d11 l3, PS)”, the calcium oscillation score was 91.3 % of control. To GGCGTTCTCGCGGAAG (sugars l3 d10 l3, PS) belongs 102 % of control; to “ATTATTCTTTTTTTTTCCAC (sugars l3 d14 l3, PS)”, 15.2 % of control. For “CCTCTAGTTTTACCTAA (sugars l2 d11 l4, PS)”, the calcium oscillation score was 72.9 % of control. To “AAAATATCCTTACCATCCTA (sugars l3 d14 l3, PS)” belongs 75.5 % of control; to “ACAAACATCTAAACACCTCA (sugars l2 d14 l4, PS)”, 72.6 % of control. For “CTCAGATTTTACTTCCA (sugars l4 d11 l2, PS)”, the calcium oscillation score was 45.2 % of control. For the sequence ACTAATATTAACACTAT (sugars l4 d9 l4, PS), the calcium oscillation score was 79.5 % of control.

Turning to CACCCTAAACCATGAT (sugars l3 d10 l3, PS), the calcium oscillation score was 71.4 % of control.

For “CTAGTTATACAGTTGGCCCT (sugars l3 d14 l3, PS)”, the calcium oscillation score was 33.3 % of control.

As for “TTATACAGTTGGCCCTACCA (sugars l3 d14 l3, PS)”, the calcium oscillation score is 40.5 % of control.

Regarding TTTACACCACACTGTC (sugars l3 d10 l3, PS), the calcium oscillation score is 83.3 % of control.

For GTCTTGGCTTTGGCGT (sugars l3 d10 l3, PS), the calcium oscillation score was 20.9 % of control. “CTCTTGACAGTCACTGCTGA (sugars l3 d14 l3, PS)”: the calcium oscillation score was 29.4 % of control. For “ACTCTTTGAACACCCCA (sugars l2 d12 l3, PS)”, the calcium oscillation score is 88.9 % of control. In the case of “CTTTATTTCCAAATTCACT (sugars l4 d10 l2 d1 l2, PS)”, the calcium oscillation score is 93.2 % of control. To GCAGGCGCGAGCAGCG (sugars l3 d10 l3, PS) belongs 23.5 % of control; to ACATGCTAATCAATAC (sugars l4 d8 l4, PS), 57.8 % of control; to CCTGGTTTATGATGGA (sugars l3 d10 l3, PS), 26.1 % of control. As to TCATTCAGCCAATCAC (sugars l4 d9 l3, PS), the calcium oscillation score was 52.4 % of control.

Regarding “TTGCAACTTTAACTCCA (sugars l4 d11 l2, PS)”, the calcium oscillation score is 80.8 % of control. On to “TCAACTCTTAGCATCCA (sugars l4 d11 l2, PS)”, for which the calcium oscillation score is 37.5 % of control.

“GACTTGGGTGGAGTACGGAC (sugars l3 d14 l3, PS)”: the calcium oscillation score was 0 % of control.

On to “CTCCTAATTTTGCACTCA (sugars l3 d13 l2, PS)”, for which the calcium oscillation score was 50.5 % of control. Take “ATCAGCCTTCATCACACT (sugars l4 d12 l2, PS)”: the calcium oscillation score was 87.7 % of control. As to “AATTAACATATTTTTACCT (sugars l4 d11 l4, PS)”, the calcium oscillation score is 75.1 % of control. To CATGTCGATGCTGCC (sugars l3 d9 l3, PS) belongs 89.5 % of control; to GCCCTAAAGTCCCAGG (sugars l3 d10 l3, PS), 41.9 % of control.

On to GCACCATATTACACCA (sugars l3 d11 l2, PS), for which the calcium oscillation score was 95.9 % of control.

As to “ATTTATTCTTTTTATTATTT (sugars l4 d12 l4, PS)”, the calcium oscillation score was 59.6 % of control. As to AGGTCTGGCATGGGC (sugars l3 d9 l3, PS), the calcium oscillation score is 47.6 % of control. In the case of “AGATCATCCATTTTCTT (sugars l2 d11 l4, PS)”, the calcium oscillation score is 55.3 % of control.

Take TTCACTTAGTAACCAA (sugars l4 d8 l4, PS): the calcium oscillation score is 62 % of control.

On to “TTATTTCCAAATTCACTTTT (sugars llddldldddddddddllll, PS)”, for which the calcium oscillation score is 118 % of control. “GTCTTTATTAACACTCC (sugars l4 d11 l2, PS)”: the calcium oscillation score is 63.3 % of control.

Regarding “CAACTCTTTGAACACCC (sugars l4 d11 l2, PS)”, the calcium oscillation score was 76.8 % of control. Turning to GGTCTGGCATGGGCA (sugars l3 d9 l3, PS), the calcium oscillation score is 59 % of control. As to “CTAATTCCCAAATTCCTCAT (sugars l3 d14 l3, PS)”, the calcium oscillation score is 60.9 % of control. On to “AGACTATTTGCACACTGCCG (sugars l3 d14 l3, PS)”, for which the calcium oscillation score is 40.7 % of control. To TATCATATCCTAAGCA (sugars l3 d9 l4, PS) belongs 76 % of control; to AACTTTTACTCTGACTA (sugars l4 d9 l4, PS), 51.9 % of control. “TTAGCCCTAAAGTCCCAGGT (sugars l3 d14 l3, PS)”: the calcium oscillation score is 86.3 % of control. As to GGACGTTGCTAAGATC (sugars l3 d10 l3, PS), the calcium oscillation score was 3.32 % of control. For the sequence “TTACCAATTATCTTTAAATT (sugars l4 d12 l4, PS)”, the calcium oscillation score was 61.9 % of control.

Turning to AATCCTGTGCTTCA (sugars l3 d8 l3, PS), the calcium oscillation score was 9.58 % of control.

On to TCTGTCTTGGCTTTG (sugars l3 d9 l3, PS), for which the calcium oscillation score is 40.6 % of control. The same measure for CTTGTGATGCAGGA (sugars l3 d8 l3, PS): 70.5 % of control; for TGGTTAGCCCTAAAGT (sugars l3 d10 l3, PS): 77 % of control. Turning to TTGGCTTTGGCGTTCT (sugars l3 d10 l3, PS), the calcium oscillation score is 74.5 % of control. Take CAAGAGGCACAAGTC (sugars l3 d9 l3, PS): the calcium oscillation score is 112 % of control. As for “CAGTAACATCCATTTCT (sugars l4 d11 l2, PS)”, the calcium oscillation score is 86.2 % of control. Take “CTCAAATCAATTCTCATTTC (sugars l4 d13 l3, PS)”: the calcium oscillation score is 62 % of control. As for TGGCGGTGACTGCGA (sugars l3 d9 l3, PS), the calcium oscillation score is 107 % of control.

In the case of “TCTCTCTAGACATCTCA (sugars l2 d12 l3, PS)”, the calcium oscillation score was 68.4 % of control.

Values taken from the OligoGym collection.
